# Measured values as given in patent publication US20250332154A1, “USE OF NAPHTHOQUINE PHOSPHATE IN PREPARATION OF A MEDICAMENT FOR TREATING AUTOIMMUNE DISEASES” (SHANGHAI PHARMACEUTICALS INDUSTRY CO., LTD, priority 2022, published 2025).
# Counter-ions that a name gives are not always drawn. Like-named read-outs stand apart in the source and are kept apart here.
# Assays:
# Assay type in all cases: cell-based
# [1] = tested on: mouse whole spleen lymphocytes (ConA-induced T cell activation and proliferation); experiment: ConA-induced lymphocyte proliferation assay (3H-thymidine); conditions: for IC50: ConA 1 μg/ml, 48 hours, 3H-thymidine, read-out: ConA IC50
# Protocol: BALB/c mice were sacrificed by cervical dislocation, and spleens were aseptically excised to prepare whole spleen lymphocytes. The cells were adjusted to the required concentration.
# A suspension of mouse spleen lymphocytes was inoculated into a 96-well plate at 5×10^5/well, and ConA (final concentration: 1 μg/ml) or LPS (final concentration: 10 μg/ml) and the above 10 concentration gradients of the compound were added. Corresponding cell control wells without ConA and LPS, as well as medicament-free stimulated control wells, were set up. The cells were cultured in a 37° C., 5% CO2 incubator for 48 hours. Eight hours before the end of the culture, ^3H-thymidine was added, and the culture continued until the end of the experiment (i.e., the aforementioned 48 hours). The cells were collected onto glass fiber membranes using a cell collector.
# ConA and LPS, as mitogens, stimulated proliferation and differentiation of T and B lymphocytes, respectively. This process is similar to the activation process of lymphocytes in vivo. Therefore, mitogen-induced lymphocyte proliferation is commonly used as an indicator to evaluate functionality of lymphocytes.
# [2] = tested on: mouse whole spleen lymphocytes; experiment: TLRs-L-stimulated proliferation of mouse whole spleen lymphocytes (3H-TdR); conditions: for IC50: Mus musculus, Lymphocyte, 48 h
# Protocol: (§1) BALB/c mice were sacrificed by cervical dislocation, and spleens were aseptically excised to prepare whole spleen lymphocytes. The cells were adjusted to 5×10^6 cells/ml. Hydroxychloroquine sulfate was diluted with a 3-fold gradient into 3 concentrations starting from 30 μM: 30, 10 and 3 μM; naphthoquine phosphate was diluted with a 3-fold gradient into 3 concentrations starting from 10 μM: 10, 3 and 1 μM.
# A suspension of mouse spleen lymphocytes was inoculated into a 96-well plate at […], and the stimulant TLR4-L (final concentration: 10 μg/ml), TLR7-L (final concentration: 5 μg/ml) or TLR9-L (final concentration: 1 μM) and compounds diluted with the above concentration gradients were added. A corresponding stimulation control and a cell control (without stimulation) were set up. The cells were cultured in a 37° C., 5% CO2 incubator for 48 hours. Eight hours before the end of culture, ^3H-TdR was added, and the culture continued until the end of the experiment. The cells were collected onto glass fiber membranes using a cell collector. 5 ml scintillation fluid was added, and the values of radioactive counts per minute were read on a Beta counter (2450 Microplate Counter, PerkinElmer).
# IgM = IgM secretion by TLRs-L-stimulated mouse whole spleen lymphocytes (ELISA); conditions: Lymphocyte, 120 h
# Protocol: as §1
# Mouse spleen lymphocytes were inoculated into a 96-well plate at 100 μl/well, and the stimulant TLR4-L (final concentration: 10 μg/ml), TLR7-L (final concentration: 5 μg/ml) or TLR9-L (final concentration: 1 μM) and the compounds diluted with the above concentration gradients were added. A corresponding stimulation control and a cell control (without stimulation) were set up. The cells were cultured in a 37° C., 5% CO2 incubator for 120 hours. After the end of the culture, the cell culture supernatants were collected, and the levels of IgG and IgM were measured by ELISA.
# [3] = Non-specific cytotoxicity assay (MTT), purified mouse B cells; conditions: BALB/c
# Protocol: (§2) BALB/c mice were sacrificed by cervical dislocation, and spleens were aseptically excised to prepare spleen lymphocytes. The cells were adjusted to 1×10^8 cells/ml, blocked with 2.4G2 (final concentration: 10 μg/ml) for 20 min, cultured with PE-CD19 (final concentration: 5 μg/ml) for 20 min, washed with MACS buffer, centrifuged at 4° C., 300G for 10 min, 100 μl anti-PE beads were added per 1×10^8 cells, incubated with 900 μl MACS buffer for 15 min, washed with MACS buffer, centrifuged at 4° C., 300G for 10 min. The supernatant was discarded. 500 μl MACS buffer was added per 1×10^8 cells to resuspend the cells. MACS column was used for separation. Magnetically labeled cells were retained on the column. The MACS column was removed from the magnetic field and then eluted.
# Hydroxychloroquine sulfate was diluted with a 2-fold gradient into 3 concentrations starting from 8 μM: 8, 4 and 2 μM. Naphthoquine phosphate was diluted with a 2-fold gradient into 3 concentrations starting from 0.5 μM: 0.5, 0.25, 0.125 μM. Purified mouse B cells were inoculated into a 96-well plate at 1×10^6/well, and gradient diluted compounds were added. A corresponding blank control and a cell control were set up. The cells were cultured in a 37° C., 5% CO2 incubator for 48 hours. […] The absorbance value was measured at 570 nm with a microplate reader (Spectra Max 190, Molecular Devices).
# IL-6 = IL-6 secretion by TLRs-L-stimulated purified mouse B cells (ELISA); conditions: B-cell, 48 h, stimulant TLR4-L 10 μg/ml
# Protocol: as §2
# A suspension of purified mouse B cells was inoculated into a 96-well plate at 4×10^5/well. Hydroxychloroquine sulfate was diluted with a 2-fold gradient into 3 concentrations starting from 8 μM: 8, 4 and 2 μM. Naphthoquine phosphate was diluted with a 2-fold gradient into 3 concentrations 0.5 μM.: 0.5, 0.25 and 0.125 μM. […] After the end of the culture, the cell culture supernatants were collected, and the levels of TNF-α, IL-1β, and IL-6 were measured by ELISA.
# IgG = IgG secretion by TLRs-L-stimulated purified mouse B cells (ELISA); conditions: B-cell, 120 h, stimulant TLR4-L 10 μg/ml
# Protocol: as §2
# A suspension of purified mouse B cells was inoculated into a 96-well plate at 4×10^5/well. Hydroxychloroquine sulfate was diluted with a 2-fold gradient into 3 concentrations, starting from 8 μM: 8, 4 and 2 μM. Naphthoquine phosphate was diluted with a 2-fold gradient into 3 concentrations starting from 0.5 μM.: 0.5, 0.25 and 0.125 μM. […] After the end of the culture, the cell culture supernatants were collected, and the levels of IgG and IgM were measured by ELISA.
IC50 (IgM; stimulant TLR4-L 10 μg/ml) [nM],IC50 (IgM; stimulant TLR9-L 1 μM) [nM],IC50 (IL-6) [nM],IC50 (IgG) [nM],IC50 (IgM; stimulant TLR7-L 5 μg/ml) [nM],Compound,"IC50 ([1]; Mus musculus, Lymphocyte) [nM]",effect on ConA-induced T cell activation and proliferation ([1]; in words),IC50 ([2]; stimulant TLR4-L 10 μg/ml) [nM],IC50 ([2]; stimulant TLR7-L 5 μg/ml) [nM],IC50 ([2]; stimulant TLR9-L 1 μM) [nM],"proliferation and cytokine and antibody secretion mediated by specific TLRs-L ([2]; mouse whole spleen lymphocytes, in words)",CC50 at 48 h [3] [nM],IC50 ([1]; listed as Hydroxychloroquine Sulfate (Zhongxi Sunve)) [nM]
845,2030,500,410,–,"CC(C)(C)NCc1cc(Nc2ccnc3cc(Cl)ccc23)c2c(c1O)CCCC2.O=P(O)(O)O.O=P(O)(O)O [Naphthoquine Phosphate, Naphthoquine phosphate]",410,significant inhibitory activity,129,1050,218,significantly inhibited,1980,–
25300,2510,> 8000,> 8000,19200,"CCN(CCO)CCCC(C)Nc1ccnc2cc(Cl)ccc12 (stereo not shown) [Hydroxychloroquine Sulfate, hydroxychloroquine sulfate]",17100,–,6610,19000,8790,–,19700,17000
